Laboratory results published in PubChem BioAssay (NCI).
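Each compound was tested at five concentrations against cells in 96-well plates for 48 hours. Abbreviation: GI50, concentration required for 50% inhibition of growth. TGI marks complete inhibition of growth.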

How the values were obtained:
Assay in all cases: inhibition of tumour cell growth, NCI panel, 48 h
[1] = tested on: MDA-MB-435
[2] = tested on: HT29 colon
[3] = tested on: SF-268 CNS
[4] = tested on: NCI-H522 lung
[5] = tested on: RPMI-8226 leukemia
[6] = tested on: KM12 colon
[7] = tested on: UACC-62 melanoma
[8] = tested on: A549 NSCLC
[9] = tested on: COLO 205 colon
[10] = tested on: SF-539 CNS
[11] = tested on: LOX IMVI melanoma
[12] = tested on: SF-295 CNS
[13] = tested on: SNB-19 CNS
[14] = tested on: UO-31 renal
[15] = tested on: TK-10 renal
[16] = tested on: 786-0 renal
[17] = tested on: HS 578T breast
[18] = tested on: ACHN renal
[19] = tested on: DU-145 prostate
[20] = tested on: K-562 leukemia
[21] = tested on: U251 CNS
[22] = tested on: HOP-62 NSCLC
[23] = tested on: CAKI-1 renal
[24] = tested on: SN12C renal
[25] = tested on: A498 renal
[26] = tested on: CCRF-CEM leukemia
[27] = tested on: T-47D breast
[28] = tested on: SNB-75 CNS
[29] = tested on: NCI-H23 lung
[30] = tested on: SK-OV-3 ovarian
[31] = tested on: M14 melanoma
[32] = tested on: HL-60(TB) leukemia
[33] = tested on: MALME-3M melanoma
[34] = tested on: OVCAR-5 ovarian
[35] = tested on: NCI/ADR-RES ovarian
[36] = tested on: OVCAR-3 ovarian
[37] = tested on: OVCAR-4 ovarian
[38] = tested on: MDA-MB-231 breast
[39] = tested on: NCI-H460 lung
[40] = tested on: EKVX NSCLC
[41] = tested on: UACC-257 melanoma
[42] = tested on: NCI-H226 lung
[43] = tested on: BT-549 breast
[44] = tested on: SR leukemia
[45] = tested on: HCT-15 colon
[46] = tested on: SK-MEL-2 melanoma
[47] = tested on: IGROV1 ovarian
[48] = tested on: HOP-92 NSCLC
[49] = tested on: RXF 393 renal
[50] = tested on: SW-620 colon
[51] = tested on: SK-MEL-5 melanoma
[52] = tested on: PC-3 prostate
[53] = tested on: MCF7 breast
[54] = tested on: SK-MEL-28 melanoma
[55] = tested on: MOLT-4 leukemia
[56] = tested on: OVCAR-8 ovarian
[57] = tested on: HCC-2998 colon
[58] = tested on: HCT-116 colon

In the case of `COC(=O)c1[nH]nc(-c2ccccc2)c1N1CCCCC1`, the GI50 [1] is reported as 64.7 µM, the TGI [1] is reported as > 100 µM and the GI50 [2] is reported as 57.9 µM. For the same compound, the TGI [2] was > 100 µM, the GI50 [3] was 20.8 µM and the TGI [3] was 53.5 µM. For the same compound, the GI50 [4] was 36.8 µM, the TGI [4] was > 100 µM and the GI50 [5] was 38 µM. For the same compound, the TGI [5] was > 100 µM, the GI50 [6] was 55.8 µM and the TGI [6] was > 100 µM. The GI50 [7] was 17.3 µM, the TGI [7] was 49.2 µM and the GI50 [8] was 43.6 µM. For the same compound, the TGI [8] was > 100 µM, the GI50 [9] was > 100 µM and the TGI [9] was > 100 µM. The GI50 [10] was 20.6 µM, the TGI [10] was 57.4 µM and the GI50 [11] was 42 µM. The TGI [11] was > 100 µM, the GI50 [12] was 45.7 µM and the TGI [12] was > 100 µM. The GI50 [13] was 36.2 µM, the TGI [13] was > 100 µM and the GI50 [14] was 65.4 µM. The TGI [14] was > 100 µM, the GI50 [15] was 32.5 µM and the TGI [15] was 68.2 µM. The GI50 [16] was 21.1 µM, the TGI [16] was 57.9 µM and the GI50 [17] was 22.4 µM. It also gave a TGI [17] of 64.7 µM, a GI50 [18] of 25.6 µM and a TGI [18] of 62.1 µM. The GI50 [19] was 30.5 µM, the TGI [19] was > 100 µM and the GI50 [20] was 57.2 µM. The TGI [20] was > 100 µM, the GI50 [21] was 26.6 µM and the TGI [21] was 78.8 µM. For the same compound, the GI50 [22] was 22 µM, the TGI [22] was 57 µM and the GI50 [23] was 62.4 µM. For the same compound, the TGI [23] was 87.8 µM, the GI50 [24] was 15.5 µM and the TGI [24] was 41.5 µM. For the same compound, the GI50 [25] was 17.4 µM, the TGI [25] was 57.2 µM and the GI50 [26] was 72.9 µM. For the same compound, the TGI [26] was > 100 µM, the GI50 [27] was 27 µM and the TGI [27] was 72.4 µM. The GI50 [28] was 30.6 µM, the TGI [28] was 84.7 µM and the GI50 [29] was 26.3 µM. The TGI [29] was 85.6 µM, the GI50 [30] was 36.4 µM and the TGI [30] was > 100 µM. The GI50 [31] was 57 µM, the TGI [31] was > 100 µM and the GI50 [32] was > 100 µM. For the same compound, the TGI [32] was > 100 µM, the GI50 [33] was 39.3 µM and the TGI [33] was > 100 µM. The GI50 [34] was 51.7 µM, the TGI [34] was > 100 µM and the GI50 [35] was 22.8 µM. For the same compound, the TGI [35] was 58.5 µM, the GI50 [36] was 40.7 µM and the TGI [36] was > 100 µM. For the same compound, the GI50 [37] was 86.7 µM, the TGI [37] was > 100 µM and the GI50 [38] was 31.2 µM. The TGI [38] was 65.9 µM, the GI50 [39] was 38.1 µM and the TGI [39] was > 100 µM. The GI50 [40] was 23.7 µM, the TGI [40] was 73.3 µM and the GI50 [41] was 39.7 µM. The TGI [41] was > 100 µM, the GI50 [42] was 13.2 µM and the TGI [42] was 36.5 µM. For the same compound, the GI50 [43] was 43.9 µM, the TGI [43] was > 100 µM and the GI50 [44] was 46.5 µM. The TGI [44] was > 100 µM, the GI50 [45] was 36.2 µM and the TGI [45] was > 100 µM. The GI50 [46] was > 100 µM, the TGI [46] was > 100 µM and the GI50 [47] was 60.8 µM. The TGI [47] was > 100 µM, the GI50 [48] was 19 µM and the TGI [48] was 64 µM. The GI50 [49] was 20.7 µM, the TGI [49] was 54.5 µM and the GI50 [50] was 75.6 µM. For the same compound, the TGI [50] was > 100 µM, the GI50 [51] was 34 µM and the TGI [51] was > 100 µM. The GI50 [52] was 38.9 µM, the TGI [52] was > 100 µM and the GI50 [53] was 29.5 µM. The TGI [53] was > 100 µM, the GI50 [54] was 52.1 µM and the TGI [54] was > 100 µM. For the same compound, the GI50 [55] was 62.6 µM, the TGI [55] was > 100 µM and the GI50 [56] was 44.2 µM. For the same compound, the TGI [56] was > 100 µM.

`BrP(NC1CCCCCC1)(c1ccccc1)(c1ccccc1)c1ccccc1` showed a TGI [1] of 7.63 µM, a TGI [57] of 6.49 µM and a TGI [2] of 4.66 µM. The TGI [3] was 11.1 µM, the TGI [4] was 8.5 µM and the TGI [5] was 5.41 µM. The TGI [6] was 3.37 µM, the TGI [7] was 15.9 µM and the TGI [8] was 25.8 µM. For the same compound, the TGI [9] was 5.4 µM, the TGI [10] was 34.4 µM and the TGI [58] was > 100 µM. The TGI [11] was 10.4 µM, the TGI [12] was 12.2 µM and the TGI [13] was 16.8 µM. It also gave a TGI [14] of 17.4 µM, a TGI [15] of 21.3 µM and a TGI [16] of 32.3 µM. The TGI [17] was 12.4 µM, the TGI [18] was 9.12 µM and the TGI [19] was 29.9 µM. The TGI [20] was > 100 µM, the TGI [21] was 13.4 µM and the TGI [22] was 35.5 µM. The TGI [23] was 13 µM, the TGI [24] was 16.1 µM and the TGI [25] was 7.26 µM. For the same compound, the TGI [26] was 29 µM, the TGI [27] was 7.76 µM and the TGI [29] was 27.4 µM. For the same compound, the TGI [31] was > 100 µM, the TGI [32] was 13.8 µM and the TGI [33] was 12.5 µM. The TGI [34] was 52.7 µM, the TGI [35] was > 100 µM and the TGI [36] was 9.94 µM. For the same compound, the TGI [38] was 16 µM, the TGI [40] was 35.4 µM and the TGI [41] was 6.3 µM. For the same compound, the TGI [42] was 33 µM, the TGI [43] was 9.57 µM and the TGI [44] was > 100 µM. For the same compound, the TGI [45] was 46.3 µM, the TGI [46] was 8.53 µM and the TGI [47] was 21.7 µM. For the same compound, the TGI [49] was 5.57 µM, the TGI [50] was 13.6 µM and the TGI [51] was 3.18 µM. The TGI [52] was 5.53 µM, the TGI [53] was 6.26 µM and the TGI [54] was 6.62 µM. For the same compound, the TGI [56] was 10.7 µM.
